This is an account of results in ChEMBL document CHEMBL4145528, “Novel dissymmetric 3,5-bis(arylidene)-4-piperidones as potential antitumor agents with biological evaluation in vitro and in vivo” (Eur J Med Chem, 2018).

Molecules are shown by their SMILES. Active and inactive are the calls of the source. No cut-off for these calls is given here.

For experiment [1], the system named is K562. Nature of the experiment: Cytotoxicity against human K562 cells assessed as reduction in cell viability after 24 hrs by MTT assay. Conditions: for IC50: K562, 24 h. In kind it is functional, cell-based. For orientation: Formazan colour is commonly taken as a measure of viable cells.
Experiment [2] has as its system HeLa. Nature of the experiment: Cytotoxicity against human HeLa cells assessed as reduction in cell viability after 24 hrs by MTT assay. In kind it is functional, cell-based.
Experiment [3] has as its system THP-1. Nature of the experiment: Cytotoxicity against human THP1 cells assessed as reduction in cell viability after 24 hrs by MTT assay. In kind it is functional, cell-based. Particulars: for IC50: THP-1, 24 h.
The subject of experiment [4] is HepG2. Nature of the experiment: Cytotoxicity against human HepG2 cells assessed as reduction in cell viability after 24 hrs by MTT assay. In kind it is functional, cell-based. Particulars: for IC50: HepG2, 24 h.
For experiment [5], the system named is L02. Nature of the experiment: Cytotoxicity against human LO2 cells assessed as reduction in cell viability after 24 hrs by MTT assay. In kind it is cell-based. Particulars: L02, 24 h.
For experiment [6], the system named is HepG2. Nature of the experiment: Downregulation of Bcl2 protein expression in human HepG2 cells at 50 uM after 3 hrs by western blot analysis. In kind it is functional, cell-based. On the technique in general: Immunoblotting shows a protein as a band on a membrane.
For experiment [7], the system named is HepG2. Nature of the experiment: Upregulation of Bax protein expression in human HepG2 cells at 50 uM after 3 hrs by western blot analysis. In kind it is functional, cell-based.

As for `CN1C/C(=C\c2cccc([N+](=O)[O-])c2)C(=O)/C(=C/c2ccccc2F)C1`, the IC50 (as a rule, the midpoint of a concentration-inhibition curve) in experiment [1] was found to be 3.89 µM; in experiment [2] it was 2.34 µM; in experiment [3] it was 1.01 µM; in experiment [4], 1.08 µM; in experiment [5], 13.5 µM.
In the same order, the values of `COc1ccc(/C=C2\CN(C)C/C(=C\c3ccccc3F)C2=O)cc1` are 18.4 µM, 23.4 µM, 15.4 µM, 12.2 µM and 22.1 µM.
Taken in the same sequence, the figures for `COc1cc(/C=C2\CN(C)C/C(=C\c3ccc(Cl)cc3)C2=O)cc(OC)c1OC` were above 20 µM, above 20 µM, 7.2 µM, 8.25 µM and 14 µM.
In the same order, the values of `COc1cc(/C=C2\CN(C)C/C(=C\c3ccc(F)cc3)C2=O)cc(OC)c1OC` are 10.2 µM, 7.25 µM, 6.13 µM, 7.34 µM and 10.7 µM.
`COc1cc(/C=C2\CN(C)C/C(=C\c3ccc(Cl)cc3Cl)C2=O)cc(OC)c1`: the 50% inhibitory concentration (IC50) in experiment [1] came to 11.9 µM; in experiment [2], 7.76 µM; in experiment [3], 6.07 µM; in experiment [4], 6.25 µM; in experiment [5], 18.8 µM.
Taken in the same sequence, the figures for `COc1cc(/C=C2\CN(C)C/C(=C\c3ccc(Cl)c(Cl)c3)C2=O)cc(OC)c1OC` were 16.1 µM, 13.5 µM, 5.33 µM, 6.96 µM and 18.4 µM.
In the same order, the values of `CN1C/C(=C\c2ccc(C(F)(F)F)cc2)C(=O)/C(=C/c2ccccc2F)C1` are 6.34 µM, 6.56 µM, 5.93 µM, 4.14 µM and 18.6 µM.
For the compound `COc1cc(/C=C2\CN(C)C/C(=C\c3ccc(Br)cc3)C2=O)cc(OC)c1OC`, the half-inhibitory concentration (IC50) in experiment [1] was 12.4 µM; in experiment [2], 11.9 µM; in experiment [3], 5.33 µM; in experiment [4] it was 6.8 µM; in experiment [5], 15.4 µM.
In the case of `CN1C/C(=C\c2ccc(Cl)cc2)C(=O)/C(=C/c2ccc(C#N)cc2)C1`, the 50% inhibitory concentration (IC50) in experiment [1] turned out to be 13.3 µM; in experiment [2], 11.2 µM; in experiment [3], 3.18 µM; in experiment [4], 5.95 µM; in experiment [5], 16.2 µM.
Taken in the same sequence, the figures for `CN1C/C(=C\c2ccc(Br)cc2)C(=O)/C(=C/c2cccc([N+](=O)[O-])c2)C1` were above 20 µM, 11.9 µM, 7.69 µM, 8.8 µM and 9.85 µM.
Taken in the same sequence, the figures for `COc1cc(/C=C2\CN(C)C/C(=C\c3ccc(F)cc3)C2=O)cc(OC)c1` were 11.2 µM, 10.2 µM, 5.04 µM, 6.14 µM and 21.9 µM.
Taken in the same sequence, the figures for `CN1C/C(=C\c2ccc(C#N)cc2)C(=O)/C(=C/c2ccccc2F)C1` were 2.67 µM, 1.34 µM, 0.81 µM, 0.59 µM and 11 µM.
Consider `CN1C/C(=C\c2ccc(C(C)(C)C)cc2)C(=O)/C(=C/c2ccccc2F)C1`, for which the 50% inhibitory concentration (IC50) turned out to be 18.2 µM in experiment [1]; 15.5 µM in experiment [2]; 13.4 µM in experiment [3]; 9.12 µM in experiment [4]; 25.8 µM in experiment [5].
In the same order, the values of `COc1cc(/C=C2\CN(C)C/C(=C\c3cccc([N+](=O)[O-])c3)C2=O)cc(OC)c1OC` are 4.2 µM, 5.54 µM, 0.89 µM, 1.89 µM and 13.6 µM.
In the same order, the values of `COc1cc(/C=C2\CN(C)C/C(=C\c3ccc(C#N)cc3)C2=O)cc(OC)c1` are 4.65 µM, 3.42 µM, 0.94 µM, 0.88 µM and 14 µM.
In the same order, the values of `CN1C/C(=C\c2ccc(F)cc2)C(=O)/C(=C/c2cccc([N+](=O)[O-])c2)C1` are 11.2 µM, 6.25 µM, 7.16 µM, 9.34 µM and 17.6 µM.
As for `CN1C/C(=C\c2ccc(C#N)cc2)C(=O)/C(=C/c2ccc(Cl)cc2Cl)C1`, the IC50 in experiment [1] was 11.9 µM; in experiment [2], 7.76 µM; in experiment [3], 1.91 µM; in experiment [4], 6.25 µM; in experiment [5], 10.8 µM.
Taken in the same sequence, the figures for `CN1C/C(=C\c2ccc(C#N)cc2)C(=O)/C(=C/c2ccc(C(F)(F)F)cc2)C1` were 4.01 µM, 3.21 µM, 1.43 µM, 0.98 µM and 17.2 µM.
In the same order, the values of `CN1C/C(=C\c2cccc(Br)c2)C(=O)/C(=C/c2cccc([N+](=O)[O-])c2)C1` are 12.2 µM, 11.1 µM, 4.03 µM, 4.89 µM and 8.07 µM.
With `COc1cc(/C=C2\CN(C)C/C(=C\c3ccc(Cl)cc3)C2=O)cc(OC)c1`, the concentration for half-maximal inhibition (IC50) was 13.3 µM in experiment [1]; 11.2 µM in experiment [2]; 5.86 µM in experiment [3]; 5.95 µM in experiment [4]; 18.9 µM in experiment [5].
Taken in the same sequence, the figures for `COc1cc(/C=C2\CN(C)C/C(=C\c3cccc([N+](=O)[O-])c3)C2=O)cc(OC)c1` were 4.42 µM, 2.56 µM, 1.77 µM, 1.84 µM and 10.8 µM.
In the same order, the values of `COc1cc(/C=C2\CN(C)C/C(=C\c3ccc(Cl)c(Cl)c3)C2=O)cc(OC)c1` are 9.49 µM, 6.9 µM, 3.26 µM, 3.84 µM and 10.6 µM.
In the same order, the values of `COc1cc(/C=C/C(=O)CC(=O)/C=C/c2ccc(O)c(OC)c2)ccc1O` [CURCUMIN] are 23.1 µM, 31.9 µM, 22.5 µM, 13.8 µM and 25.7 µM.
Take `COc1ccc(/C=C2\CN(C)C/C(=C\c3ccccc3F)C2=O)cc1OC`: the half-maximal inhibitory concentration (IC50) was 18 µM in experiment [1]; 14.3 µM in experiment [2]; 11.2 µM in experiment [3]; 8.76 µM in experiment [4]; 10.5 µM in experiment [5].
For the compound `COc1cc(/C=C2\CN(C)C/C(=C\c3ccc(Br)cc3)C2=O)cc(OC)c1`, the IC50 in experiment [1] was determined as 7.42 µM; in experiment [2], 5.9 µM; in experiment [3], 4.27 µM; in experiment [4], 4.84 µM; in experiment [5], 21.3 µM.
`COc1cc(/C=C2\CN(C)C/C(=C\c3ccc(C#N)cc3)C2=O)cc(OC)c1OC`: the Activity entry in experiment [1], in experiment [2], in experiment [3] and in experiment [4] was “Dose-dependent effect” throughout. Further, the half-inhibitory concentration (IC50) was determined as 4.29 µM in experiment [1]; 3.42 µM in experiment [2]; 0.82 µM in experiment [3]; 1.14 µM in experiment [4]; 18.6 µM in experiment [5]. Besides, the result in experiment [6] and in experiment [7] was Active.
Regarding `CN1C/C(=C\c2ccc(F)cc2)C(=O)/C(=C/c2ccc(C#N)cc2)C1`, the IC50 in experiment [1] turned out to be 11.2 µM; in experiment [2], 10.2 µM; in experiment [3] it was 5.03 µM; in experiment [4] it was 6.14 µM; in experiment [5], 20.9 µM.
Taken in the same sequence, the figures for `COc1cc(/C=C2\CN(C)C/C(=C\c3ccc(Cl)cc3Cl)C2=O)cc(OC)c1OC` were above 20 µM, above 20 µM, 5.02 µM, 8.8 µM and 13.4 µM.
Taken in the same sequence, the figures for `CN1C/C(=C\c2ccc(Br)cc2)C(=O)/C(=C/c2ccc(C#N)cc2)C1` were 7.42 µM, 5.9 µM, 4.4 µM, 4.84 µM and 10.5 µM.
In the same order, the values of `CN1C/C(=C\c2ccc(Cl)cc2)C(=O)/C(=C/c2cccc([N+](=O)[O-])c2)C1` are above 20 µM, above 20 µM, 7.87 µM, 8.21 µM and above 20 µM.
Turning to `CN1C/C(=C\c2cccc([N+](=O)[O-])c2)C(=O)/C(=C/c2ccc(Cl)c(Cl)c2)C1`, the IC50 in experiment [1] is 15.5 µM; in experiment [2] it was 9.12 µM; in experiment [3], 5.02 µM; in experiment [4], 5.96 µM; in experiment [5], 14.8 µM.
In the same order, the values of `CN1C/C(=C\c2cccc([N+](=O)[O-])c2)C(=O)/C(=C/c2ccc(Cl)cc2Cl)C1` are 12.4 µM, 8.9 µM, 3.56 µM, 4.8 µM and 14 µM.
In the same order, the values of `COc1cc(/C=C2\CN(C)C/C(=C\c3ccccc3F)C2=O)cc(OC)c1` are 6.32 µM, 5.45 µM, 1.17 µM, 1.24 µM and 11.9 µM.
